Measurements: patent publication US20050215548A1 (Cyclacel Limited, priority 2002, published 2005)
pIC50: −log10 of the molar value. Residues, ends and D or L forms follow the SMILES beside them. *: point of attachment. Cbz = O=C(OCc1ccccc1)*; CH2F = FC*

Experiments:
[1] = biological target: T1, HDM2 (Homo sapiens, UniProt Q00987); assay: Fluorescence polarisation competitive HDM2 binding assay; conditions: text of Example 10, refer Table 1; read-out: competitive inhibition IC50
T1 construct: Recombinant HDM2 (1.5 μg per well) in TBS-BSA buffer
Summary of the method: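 Recombinant HDM2 (1.5 μg/well) was preincubated 5 min at room temperature with serially diluted compound in 50 mM Tris pH 7.4, 150 mM NaCl, 0.1% BSA, 5% DMSO final. Fluorescein-labelled p53 peptide (0.2 μM) was then added for 45 min. Polarisation was read at 485/520 nm and IC50 derived from dose-response curves.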

[2] = system: SJSA-1; assay: 72-h MTT cytotoxicity assay, SJSA-1; assay type: cell-based; conditions: Homo sapiens, SJSA-1; 72-h MTT; Table 1; read-out: IC50 Anti-proliferative effect on cell line SJSA-1
Summary of the method: (§1)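 Cell-based anti-proliferative read-out. p53 and HDM2 status differ by line: AGS (gastric adenocarcinoma) wild-type p53; SJSA-1 (multipotential bone sarcoma) wild-type p53 plus HDM2 overexpression; H1299 (large cell lung carcinoma) p53 null, HDM2 low.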

[3] = system: H1299; assay: 72-h MTT cytotoxicity assay, H1299; assay type: cell-based; conditions: Homo sapiens, NCI-H1299; 72-h MTT; Table 1; read-out: IC50 Anti-proliferative effect on cell line H 1299
Summary of the method: as §1

[4] = system: AGS; assay: 72-h MTT cytotoxicity assay, AGS; assay type: cell-based; conditions: Homo sapiens, 72-h MTT, Table 1, read-out: IC50 Anti-proliferative effect on cell line AGS
Summary of the method: as §1

[5] = system: key proteins in the HDM2 pathway; assay: SDS-PAGE and immunoblotting of key proteins in the HDM2 pathway; assay type: cell-based, human
Text: Equal amounts of cell lysate were separated by SDS-PAGE and analysed by immunoblotting using the indicated antibodies. An estimation of the extent of cell rounding is indicated above each lane. […] (B) The effect of compound 2 on the levels of the cell cycle proteins in AGS cells (wild-type 53). […] Equal amounts of cell lysate were separated by SDS-PAGE and analysed by immunoblotting using the indicated antibodies. An estimation of the extent of cell rounding is indicated above each lane. (C) The effect of negative control compound (refer Example 10), compound 2, cisplatin, and anisomycin on the levels of key proteins in MCF7 cells. […] Cisplatinum and anisomycin (a transcription inhibitor) treatments were with 50 μM or 37 μM, respectively. Cells were harvested at various time points; afterwards lysates were prepared and separated by SDS-PAGE and analysed by immunoblotting. The proteins detected are indicated. The extent of rounded or floating cells and the percentage viable cells were assessed. […] Equal amounts of cell lysate were separated by SDS-PAGE and analysed by immunoblotting using a range of antibodies. An estimation of the extent of cell rounding is indicated above each lane. […] SJSA1 cells were treated with 5 times [IC50] of compound 2 and collected at the indicated time points. Equal amounts of cell lysate were separated by SDS-PAGE and analysed by immunoblotting using a range of antibodies. An estimation of the extent of cell rounding is indicated above each lane.
Many types of cellular stress converge on the p53 pathway and induce its activity. […] The biological effect of bisarylsufonamides on cellular level was studies using representative compounds (mainly compound 2) and number of cell lines with different HDM2 and p53 status. These were overexpressing Hdm2 (SJSA1—osteosarcoma), wild type p53 and normal levels of HDM2 (AGS—gastric adenocarcinoma, MCF7—breast adenocarcinoma), or p53 null, low levels of HDM2 (H1299—large cell lung carcinoma).
Cells were lysed and equal amounts were analysed by SDS-polyacrylamide gel electrophoresis (SDS-PAGE) and immunoblotting.

[6] = system: AGS, H1299, MCF7 or SJSA1 cells; assay: Cell morphology (cell rounding); assay type: cell-based, human; conditions: five times IC50
Text: Equal amounts of cell lysate were separated by SDS-PAGE and analysed by immunoblotting using the indicated antibodies. An estimation of the extent of cell rounding is indicated above each lane. The arrow indicates the position of a 85-kDa cleavage product of PARP, indicative of apoptosis. (B) The effect of compound 2 on the levels of the cell cycle proteins in AGS cells (wild-type 53). […] Equal amounts of cell lysate were separated by SDS-PAGE and analysed by immunoblotting using the indicated antibodies. An estimation of the extent of cell rounding is indicated above each lane. (C) The effect of negative control compound (refer Example 10), compound 2, cisplatin, and anisomycin on the levels of key proteins in MCF7 cells. […] Cisplatinum and anisomycin (a transcription inhibitor) treatments were with 50 μM or 37 μM, respectively. Cells were harvested at various time points; afterwards lysates were prepared and separated by SDS-PAGE and analysed by immunoblotting. The proteins detected are indicated. The extent of rounded or floating cells and the percentage viable cells were assessed. […] Equal amounts of cell lysate were separated by SDS-PAGE and analysed by immunoblotting using a range of antibodies. An estimation of the extent of cell rounding is indicated above each lane. […] SJSA1 cells were treated with 5 times [IC50] of compound 2 and collected at the indicated time points. Equal amounts of cell lysate were separated by SDS-PAGE and analysed by immunoblotting using a range of antibodies. An estimation of the extent of cell rounding is indicated above each lane.
Cells were treated with 5 times [IC50] of compound 2 and collected at various time points. The percentage of rounded cells was counted before cells were trypsinised and counted for cell viability using trypan blue.
Cells were lysed and equal amounts were analysed by SDS-polyacrylamide gel electrophoresis (SDS-PAGE) and immunoblotting. […] The reduction in E2F-1 levels correlated with reduction in E2F transcriptional activity as determined by an E2F-dependent luciferase reporter assay (refer Example 6).

[7] = system: AGS cells; assay: Caspase activity (casp ACE assay), AGS; assay type: cell-based, human; conditions: 24 hours
Method: In more detail: (A) Cells were treated with […] [IC50] of compound 2 or cisplatinum and collected at the time points indicated. Cell lysates were prepared, the caspase activity was determined using the casp ACE assay and values were plotted on a graph. (B) Cells were treated with 5 times [IC50] of compound 2 or cisplatinum and collected at the time points indicated. AGS cells were also incubated with compound 2 in the presence of a caspase inhibitor Z-VAD.fmk. Cell lysates were prepared, the caspase activity was determined using the casp ACE assay and values were plotted on a graph.
To characterise the apoptosis-inducing properties of bisarylsulfonamides caspase ⅓ activty was measured. AGS or H1299 cells were treated with a low concentration of compound 2 or cisplatin corresponding to twice the IC50 value (FIG. 6A). Morphological changes were detected in 10-20% of cells by 72 hours corresponding to an induction of caspase activity first detected at 48 hours, increasing by 72 hours. We also treated AGS and H1299 cells with higher concentrations corresponding to five times the IC50 (FIG. 6B). In this experiment we included a […], Z-VAD.fmk to determine the caspase responsible.

T1 sequence (Q00987 whole entry): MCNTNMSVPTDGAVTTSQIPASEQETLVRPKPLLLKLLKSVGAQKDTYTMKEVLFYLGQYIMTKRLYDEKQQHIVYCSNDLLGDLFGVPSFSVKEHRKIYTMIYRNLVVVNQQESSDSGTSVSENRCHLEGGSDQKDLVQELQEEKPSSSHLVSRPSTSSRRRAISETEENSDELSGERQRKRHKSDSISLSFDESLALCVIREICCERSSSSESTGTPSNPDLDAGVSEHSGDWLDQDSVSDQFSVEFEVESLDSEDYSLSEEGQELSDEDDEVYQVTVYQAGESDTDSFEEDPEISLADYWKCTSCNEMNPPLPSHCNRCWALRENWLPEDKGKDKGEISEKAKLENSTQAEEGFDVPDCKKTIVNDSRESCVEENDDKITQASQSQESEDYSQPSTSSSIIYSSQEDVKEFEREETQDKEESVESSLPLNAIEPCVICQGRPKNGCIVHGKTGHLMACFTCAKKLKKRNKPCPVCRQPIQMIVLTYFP

pIC50 [1] | Compound | pIC50 [2] | pIC50 [3] | pIC50 [4] | PARP cleavage / PARP levels ([5]; five times IC50, 85-kDa cleavage product marker for apoptosis) | changes in protein levels and cell morphology ([5]; negative control: MCF7, 13.5 μM, 68/69: MCF7 and H1299 at five times IC50 of 69, 49: AGS, SJSA1, H1299) | cell rounding [6] | caspase activity induced by compound 2 in presence of caspase inhibitor [7]
3.82 | O=[N+]([O-])c1csc(S(=O)(=O)Nc2ccc(Cl)cc2)c1 [Compound 69, 4-Nitro-thiophene-2-sulfonic acid (4-chloro-phenyl)-amide] | 4.55 | 4.52 | 4.72 | Rapid reduction in PARP levels | induced changes in both morphology and protein levels | No rapid cell rounding | –
– | COC(=O)C[C@H](NC(=O)[C@H](C)NC(=O)[C@@H](NC(=O)OCc1ccccc1)C(C)C)C(=O)CF [Z-VAD.fmk, reference compound] (Cbz-Val-Ala-Asp(OMe)-CH2F) | – | – | – | – | – | – | reduced the caspase activity to background levels
